The text below walks through data of EP4570800A1, “CRYSTAL FORM OF PYRIDINOPYRIMIDINONE COMPOUND, ACID SALT THEREOF, CRYSTAL FORM OF ACID SALT THEREOF, AND USE” (Wuhan Humanwell Innovative Drug Research and Development …, priority 2022, dated 2024).

In general, IC50 refers to the point on the concentration scale where inhibition reaches its midpoint.

The target in this experiment is T1, KRAS G12C::SOS1 (Homo sapiens, UniProt Q07889).
T1 sequence (Q07889 564-1049 limits assumed): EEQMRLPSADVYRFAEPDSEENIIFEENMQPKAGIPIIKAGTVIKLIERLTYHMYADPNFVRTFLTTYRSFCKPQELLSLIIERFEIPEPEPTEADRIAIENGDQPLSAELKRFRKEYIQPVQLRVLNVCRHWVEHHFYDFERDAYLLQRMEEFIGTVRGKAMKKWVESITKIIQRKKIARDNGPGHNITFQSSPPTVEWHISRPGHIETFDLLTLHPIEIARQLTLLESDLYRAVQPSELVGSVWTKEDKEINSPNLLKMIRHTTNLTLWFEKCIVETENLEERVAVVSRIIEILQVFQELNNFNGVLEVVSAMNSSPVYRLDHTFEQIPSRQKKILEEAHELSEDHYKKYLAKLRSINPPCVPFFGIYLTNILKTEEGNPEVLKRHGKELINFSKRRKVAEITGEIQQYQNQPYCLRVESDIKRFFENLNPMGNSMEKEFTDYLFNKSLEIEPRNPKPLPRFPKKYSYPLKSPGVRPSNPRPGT
Put plainly: Inhibition of KRAS G12C::SOS1 binding (anti-6his-Tb / anti-GST-XL665 fluorescence ratio). To be noted: GST-KRAS G12C and His-SOS1.

Take `Cc1nc(N[C@H](C)c2cccc(S(F)(F)(F)(F)F)c2)c2cn(C3(CF)CC3)c(=O)cc2n1` [Compound of formula I, (R)-6-(1-(fluoromethyl)cyclopropyl)-2-methyl-4-((1-(3-(pentafluorosulfanyl)phenyl)ethyl)amino)pyrido[4,3-d]pyrimidin-7(6H)-one]: the IC50 amounted to 3.94 nM.
